{
  "source": "patent EP1247803A2",
  "about": "“Indolinone compounds suitable for modulation of protein kinases” (Sugen, Inc., priority 1996, dated 1998)",
  "key": {"[1]": {"biological_target": "T1, EGFR (Homo sapiens, UniProt P00533)", "T1 construct": "Add 7 ug A431 cell lysate per well (EGFR source); endogenous in cells; host or cells: A431", "T1 sequence (P00533 25-1210)": "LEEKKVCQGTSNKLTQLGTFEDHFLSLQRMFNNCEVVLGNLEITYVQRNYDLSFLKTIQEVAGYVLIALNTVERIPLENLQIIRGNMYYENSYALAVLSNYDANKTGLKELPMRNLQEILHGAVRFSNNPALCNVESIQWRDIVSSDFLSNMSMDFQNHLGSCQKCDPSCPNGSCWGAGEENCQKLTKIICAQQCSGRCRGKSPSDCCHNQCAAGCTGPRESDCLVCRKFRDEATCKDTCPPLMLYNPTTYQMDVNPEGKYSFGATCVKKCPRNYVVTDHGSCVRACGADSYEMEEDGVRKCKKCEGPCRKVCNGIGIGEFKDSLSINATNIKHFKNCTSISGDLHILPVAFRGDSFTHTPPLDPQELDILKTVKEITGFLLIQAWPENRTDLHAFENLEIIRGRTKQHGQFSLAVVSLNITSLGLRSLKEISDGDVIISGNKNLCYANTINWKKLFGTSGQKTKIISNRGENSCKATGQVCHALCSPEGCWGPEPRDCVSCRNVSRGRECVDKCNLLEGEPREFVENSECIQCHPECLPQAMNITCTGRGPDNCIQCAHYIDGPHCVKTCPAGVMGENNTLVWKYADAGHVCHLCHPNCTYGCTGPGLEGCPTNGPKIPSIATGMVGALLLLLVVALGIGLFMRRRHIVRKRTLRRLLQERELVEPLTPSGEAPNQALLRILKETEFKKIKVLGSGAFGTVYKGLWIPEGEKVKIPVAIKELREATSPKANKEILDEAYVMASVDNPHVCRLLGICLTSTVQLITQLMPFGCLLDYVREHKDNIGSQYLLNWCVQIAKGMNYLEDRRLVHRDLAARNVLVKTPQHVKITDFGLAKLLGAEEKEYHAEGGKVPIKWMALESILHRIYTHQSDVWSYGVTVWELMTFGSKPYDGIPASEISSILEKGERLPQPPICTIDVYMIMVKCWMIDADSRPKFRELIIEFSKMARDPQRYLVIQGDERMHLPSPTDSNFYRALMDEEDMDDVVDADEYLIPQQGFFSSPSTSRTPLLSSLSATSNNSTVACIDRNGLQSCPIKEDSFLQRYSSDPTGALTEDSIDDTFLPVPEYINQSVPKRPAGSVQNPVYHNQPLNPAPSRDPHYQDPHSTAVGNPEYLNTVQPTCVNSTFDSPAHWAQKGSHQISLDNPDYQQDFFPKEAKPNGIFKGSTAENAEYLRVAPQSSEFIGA", "test": "EGFR ELISA assay (in vitro kinase activity, EGFR captured from A431 cell lysate)", "type": "biochemical", "parameters": "concentration or dose not given beside the values", "method_in_brief": "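Receptor autophosphorylation was read by ELISA: anti-phosphotyrosine serum and an HRP-linked secondary with ABTS substrate, absorbance at 410 nm (reference 630 nm). The reaction ran 5 min with 3 µM ATP and 5 mM MnCl2 and was quenched by 20 mM EDTA. Compounds were first incubated 30 min with antibody-captured EGFR from A431 cell lysate.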"}, "[2]": {"biological_target": "PDGF-R (Homo sapiens, UniProt P09619)", "sequence (P09619 33-1106, species assumed)": "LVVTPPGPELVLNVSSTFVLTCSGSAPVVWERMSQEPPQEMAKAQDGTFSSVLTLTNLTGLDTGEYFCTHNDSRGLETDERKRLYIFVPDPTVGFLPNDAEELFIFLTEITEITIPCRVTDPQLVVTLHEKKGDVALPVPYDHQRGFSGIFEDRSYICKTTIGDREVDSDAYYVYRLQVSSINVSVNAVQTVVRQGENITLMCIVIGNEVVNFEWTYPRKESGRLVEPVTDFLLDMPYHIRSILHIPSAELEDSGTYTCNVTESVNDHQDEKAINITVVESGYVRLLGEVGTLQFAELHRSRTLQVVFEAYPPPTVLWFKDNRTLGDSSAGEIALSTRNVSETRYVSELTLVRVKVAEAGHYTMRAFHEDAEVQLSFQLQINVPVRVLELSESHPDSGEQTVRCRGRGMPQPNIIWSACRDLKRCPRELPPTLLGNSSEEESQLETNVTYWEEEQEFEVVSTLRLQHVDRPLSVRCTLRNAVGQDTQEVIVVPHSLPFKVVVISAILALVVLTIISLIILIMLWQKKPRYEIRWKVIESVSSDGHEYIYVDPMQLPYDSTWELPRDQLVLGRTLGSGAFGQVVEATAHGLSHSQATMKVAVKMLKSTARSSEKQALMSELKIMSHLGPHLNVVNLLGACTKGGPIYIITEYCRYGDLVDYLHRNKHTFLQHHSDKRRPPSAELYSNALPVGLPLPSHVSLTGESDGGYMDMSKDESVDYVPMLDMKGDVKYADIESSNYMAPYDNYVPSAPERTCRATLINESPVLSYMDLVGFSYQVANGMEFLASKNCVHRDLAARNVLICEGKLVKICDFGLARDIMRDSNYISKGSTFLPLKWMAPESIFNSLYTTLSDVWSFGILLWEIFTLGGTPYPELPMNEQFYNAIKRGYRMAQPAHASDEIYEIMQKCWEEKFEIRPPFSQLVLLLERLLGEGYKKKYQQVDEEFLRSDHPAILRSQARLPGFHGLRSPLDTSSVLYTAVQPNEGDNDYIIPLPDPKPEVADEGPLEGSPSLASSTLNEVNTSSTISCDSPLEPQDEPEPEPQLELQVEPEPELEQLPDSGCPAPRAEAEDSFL", "test": "PDGF-R ELISA", "type": "cell-based", "description": "A PDGF-R ELISA is described in International Patent Publication No. WO 96/40116, published December 19, 1996 by Tang et al."}},
  "data": [
    {"molecule": "O=C1Nc2ccc(CCCl)cc2C1=Cc1cc(Cl)ccc1O", "note": "[10734/G04]", "values": [
      {"measurement": "Biochem EGFR %Inhibition", "setting": "[1]", "result": 62.9, "unit": "%"},
      {"measurement": "PDGF Kinase %Inhibition", "setting": "[2]", "result": 16.1, "unit": "%"}
    ]},
    {"molecule": "CCN(CC)c1ccc(C=C2C(=O)Nc3ccc(CCCl)cc32)c(O)c1", "note": "[10734/G05]", "values": [
      {"measurement": "Biochem EGFR %Inhibition", "setting": "[1]", "result": -0.3, "unit": "%"},
      {"measurement": "PDGF Kinase %Inhibition", "setting": "[2]", "result": 2.9, "unit": "%"}
    ]},
    {"molecule": "O=C1Nc2ccc(CCCl)cc2C1=Cc1ccc([N+](=O)[O-])cc1", "note": "[10734/G06]", "values": [
      {"measurement": "Biochem EGFR %Inhibition", "setting": "[1]", "result": 12.5, "unit": "%"},
      {"measurement": "PDGF Kinase %Inhibition", "setting": "[2]", "result": -18.8, "unit": "%"}
    ]},
    {"molecule": "O=C1Nc2ccc(CCCl)cc2C1=Cc1cc(Br)cc(Br)c1O", "note": "[10734/G07]", "values": [
      {"measurement": "Biochem EGFR %Inhibition", "setting": "[1]", "result": 51.1, "unit": "%"},
      {"measurement": "PDGF Kinase %Inhibition", "setting": "[2]", "result": -25.0, "unit": "%"}
    ]},
    {"molecule": "O=C1Nc2ccc(CCCl)cc2C1=Cc1cccc(F)c1O", "note": "[10734/G08]", "values": [
      {"measurement": "Biochem EGFR %Inhibition", "setting": "[1]", "result": 33.7, "unit": "%"},
      {"measurement": "PDGF Kinase %Inhibition", "setting": "[2]", "result": 0.2, "unit": "%"}
    ]},
    {"molecule": "O=C1Nc2ccc(CCCl)cc2C1=Cc1ccc(O)c(Br)c1", "note": "[10734/G09]", "values": [
      {"measurement": "Biochem EGFR %Inhibition", "setting": "[1]", "result": 21.4, "unit": "%"},
      {"measurement": "PDGF Kinase %Inhibition", "setting": "[2]", "result": -7.7, "unit": "%"}
    ]},
    {"molecule": "CC(C)(C)c1ccc(C=C2C(=O)Nc3ccc(CCCl)cc32)cc1", "note": "[10734/G10]", "values": [
      {"measurement": "Biochem EGFR %Inhibition", "setting": "[1]", "result": 3.8, "unit": "%"},
      {"measurement": "PDGF Kinase %Inhibition", "setting": "[2]", "result": 9.9, "unit": "%"}
    ]},
    {"molecule": "O=C1Nc2ccc(CCCl)cc2C1=Cc1ccc(Br)s1", "note": "[10734/G11]", "values": [
      {"measurement": "Biochem EGFR %Inhibition", "setting": "[1]", "result": 4.1, "unit": "%"},
      {"measurement": "PDGF Kinase %Inhibition", "setting": "[2]", "result": -25.4, "unit": "%"}
    ]}
  ]
}
